system: mPTP; assay: mPTP activity (Ca2+ retention) assay in isolated rat liver mitochondria; type: biochemical; details: examples tested by different contract research organisations, believed comparable
Excerpt: Pharmacological inhibition or modulation of the mPTP can be measured in well characterised ‘Ca^2+ retention’ assays performed in isolated mitochondria. In vitro, isolated mitochondria rapidly sequester exogenous Ca^2+ until the intramitochondrial Ca^2+ concentration reaches the threshold for mPTP activation. Once the pore is activated, mitochondrial integrity is compromised and the stored Ca^2+ is released. The distribution of Ca^2+ between extra- and intra-mitochondrial compartments can be measured in real time with the use of membrane-impermeant Ca^2+ sensitive fluorescent dyes. Depending on the configuration of the assay, inhibition or modulation of the mPTP either delays the opening of the pore or increases the concentration of Ca^2+ required to induce mPTP opening.
MPTP activity was measured in mitochondria freshly isolated from female Sprague Dawley (250 to 300 gram) rat livers using the following method. Cervical dislocation was performed on the rat. The liver was then perfused in-situ with −40 ml cold Dulbecco's Phosphate Buffered Saline (DPBS) prior to dissection and transferred into 30 ml Isolation Buffer (250 mM Sucrose, 10 mM KCl, 1 mM EGTA, 1 mM EDTA, 25 mM HEPES, adjusted to pH 7.5 with 1M NaOH). Each lobe of the liver was then removed from the buffer, minced using tweezers and a scalpel into −5 mm pieces then transferred into a 50 ml Potterton dounce homogenization tube on ice containing 30 ml ice-cold centrifugation buffer (300 mM Trehalose, 25 mM HEPES, 1 mM EGTA, 1 mM EDTA, 10 mM KCl, adjusted to pH 7.5 with 1M NaOH and supplemented with 0.1% bovine serum albumin (BSA) and complete protease inhibitor cocktail (one tablet of inhibitor per 50 mls of buffer). Homogenisation was carried out using a teflon pestle at 1800 rpm. The slurry was centrifuged at 800 g for 10 min at 4° C., then the supernatant centrifuged at 10,000 g for 10 min. The pellet was washed once with FLIPR assay buffer (75 mM Mannitol, 25 mM Sucrose, 5 mM Potassium Phosphate Monobasic, 20 mM Tris base, 100 mM KCl, 0.1% BSA adjusted to pH 7.4 with 5M HCl) centrifuged again, then resuspended in FLIPR assay buffer to a concentration of 8.8 mg/ml protein.
Tested compounds (10 mM stock in DMSO) were serially diluted in DMSO in half log steps to generate 10 test concentrations (final concentrations in assay 30 μM to 1 nM). An intermediate dilution of 5 μl DMSO samples into 247 μl FLIPR assay buffer was carried out prior to transfer of 5 μl into duplicate wells of a 384 well polypropylene assay plate. Control wells were 0.5% (v/v) DMSO and 5 μM cyclosporin A.
A stock mitochondria/Fluo5N assay solution was prepared in 5.6 ml FLIPR assay buffer (at RT) supplemented with succinate disodium salt (10 mM), rotenone (1 μM), Fluo5N pentapotassium salt (2 μM) and 1 ml mitochondria suspension, then transferred (15 μl) into the assay plate containing test compounds and incubated for 10 min at RT. Assay plates were processed for fluorescence detection on either a FLIPR Tetra (Molecular Devices) or CLARIOstar (BMG) plate reader. For kinetic fluorescence detection on the FLIPR, dye fluorescence was measured every 3 sec for a total of 10 min. After 12 sec, a 2.5 μl bolus of CaCl2 (75 μM) was added from a source plate containing 675 μM CaCl2 in FLIPR assay buffer. Alternatively, the 2.5 μl addition of CaCl2 was performed using a Viaflow 384, plates were incubated at RT for 10 min, and dye fluorescence measured after 10 min on the CLARIOstar plate reader. pIC50 values for tested compounds were calculated using the fluorescence value collected at the 10 min timepoint on either plate reader, with % inhibition calculated using the DMSO control and cyclosporin A values as 0 and 100% respectively.

Row | Compound | mPTP Rat liver pIC50
1 | Cc1cc(Cl)ccc1CC1(CNC(=O)c2nn(C)c(=O)[nH]2)CCC1 [Example 91, N-((1-(4-Chloro-2-methylbenzyl)cyclobutyl)methyl)-1-methyl-5-oxo-4,5-dihydro-1H-1,2,4-triazole-3-carboxamide] | 5.75
2 | Cn1nc(C(=O)NCC(Cc2ccc(F)cc2F)C2CC2)[nH]c1=O (stereo not shown) [Example 93, N-(2-Cyclopropyl-3-(2,4-difluorophenyl)propyl)-1-methyl-5-oxo-4,5-dihydro-1H-1,2,4-triazole-3-carboxamide] | 6.58
3 | Cc1cccc(CC2(CNC(=O)c3nn(C)c(=O)[nH]3)CCC2)c1F [Example 94, N-((1-(2-Fluoro-3-methylbenzyl)cyclobutyl)methyl)-1-methyl-5-oxo-4,5-dihydro-1H-1,2,4-triazole-3-carboxamide] | 5.77
4 | Cn1nc(C(=O)NC[C@@H](Cc2ccc(F)cc2F)C2CC2)[nH]c1=O [Example 97, (S)—N-(2-cyclopropyl-3-(2,4-difluorophenyl)propyl)-1-methyl-5-oxo-4,5-dihydro-1H-1,2,4-triazole-3-carboxamide] | 5.66
5 | Cn1nc(C(=O)NCC2(Cc3ccc(F)cc3OC(F)(F)F)CCC2)[nH]c1=O [Example 102, N-((1-(4-fluoro-2-(trifluoromethoxy)benzyl)cyclobutyl)methyl)-1-methyl-5-oxo-4,5-dihydro-1H-1,2,4-triazole-3-carboxamide] | <4.57
6 | Cn1nc(C(=O)NCC(Cc2ccc(F)cc2F)C2CCCC2)[nH]c1=O (stereo not shown) [Example 103, N-(2-cyclopentyl-3-(2,4-difluorophenyl)propyl)-1-methyl-5-oxo-4,5-dihydro-1H-1,2,4-triazole-3-carboxamide] | <4.57
7 | Cn1nc(C(=O)NCC2(Cc3ccc(C(F)(F)F)cc3F)CCC2)[nH]c1=O [Example 104, N-((1-(2-fluoro-4-(trifluoromethyl)benzyl)cyclobutyl)methyl)-1-methyl-5-oxo-4,5-dihydro-1H-1,2,4-triazole-3-carboxamide] | <4.57
8 | O=C(NCC1(Cc2ccc(F)cc2F)CCC1)c1nnc(C(F)(F)F)[nH]1 [Example 105, N-((1-(2,4-difluorobenzyl)cyclobutyl)methyl)-5-(trifluoromethyl)-4H-1,2,4-triazole-3-carboxamide] | <4.57
9 | CSc1ccc(CC2(CNC(=O)c3nn(C)c(=O)[nH]3)CCC2)cc1 [Example 106, 1-methyl-N-((1-(4-(methylthio)benzyl)cyclobutyl)methyl)-5-oxo-4,5-dihydro-1H-1,2,4-triazole-3-carboxamide] | <4.57
10 | Cn1nc(C(=O)NCC2(Cc3ccc(F)cc3F)CCC2)n(C)c1=O [Example 107, N-((1-(2,4-difluorobenzyl)cyclobutyl)methyl)-1,4-dimethyl-5-oxo-4,5-dihydro-1H-1,2,4-triazole-3-carboxamide] | <4.57
11 | Cc1cccc(C)c1CC1(CNC(=O)c2nn(C)c(=O)[nH]2)CCC1 [Example 108, N-((1-(2,6-dimethylbenzyl)cyclobutyl)methyl)-1-methyl-5-oxo-4,5-dihydro-1H-1,2,4-triazole-3-carboxamide] | <4.57
12 | Cn1nc(C(=O)NCC2(Cc3cccc(C(F)(F)F)c3)CCC2)[nH]c1=O [Example 110, 1-methyl-5-oxo-N-((1-(3-(trifluoromethyl)benzyl)cyclobutyl)methyl)-4,5-dihydro-1H-1,2,4-triazole-3-carboxamide] | <4.57
13 | CCc1ccc(CC2(CNC(=O)c3nn(C)c(=O)[nH]3)CCC2)cc1 [Example 111, N-((1-(4-ethylbenzyl)cyclobutyl)methyl)-1-methyl-5-oxo-4,5-dihydro-1H-1,2,4-triazole-3-carboxamide] | <4.57
14 | CCC(CNC(=O)c1nn(C)c(=O)[nH]1)Cc1cscn1 (stereo not shown) [Example 112, 1-methyl-5-oxo-N-(2-(thiazol-4-ylmethyl)butyl)-4,5-dihydro-1H-1,2,4-triazole-3-carboxamide] | <4.57
15 | CCC(CNC(=O)c1nn(C)c(=O)[nH]1)Cc1cnn(C)c1 (stereo not shown) [Example 113, 1-methyl-N-(2-((1-methyl-1H-pyrazol-4-yl)methyl)butyl)-5-oxo-4,5-dihydro-1H-1,2,4-triazole-3-carboxamide] | <4.57
16 | Cn1nc(C(=O)NC[C@H](Cc2ccc(F)c(F)c2)C2CC2)[nH]c1=S [Example 118, (R)-N-(2-cyclopropyl-3-(3,4-difluorophenyl)propyl)-1-methyl-5-thioxo-4,5-dihydro-1H-1,2,4-triazole-3-carboxamide] | 6.26
17 | Cn1nc(C(=O)NC[C@H](Cc2ccc(F)c(F)c2)C2CC2)[nH]c1=S [Example 119] | 5.9
18 | Cn1nc(C(=O)NCC2(Cc3ccc(F)cc3F)CCCO2)[nH]c1=O (stereo not shown) [Example 120] | 6.51
19 | O=C(NCC1(Cc2ccc(F)cc2F)CC12CC2)c1cncc(=O)[nH]1 (stereo not shown) [Example 122] | 6.31

Row | Compound | mPTP Rat liver pIC50
20 | Cn1nc(C(=O)NCC2(Cc3ccc(F)cc3F)CC23CC3)[nH]c1=O (stereo not shown) [Example 123] | 7.04
21 | Cn1nc(C(=O)NC[C@H](Cc2ccccc2)C2CC2)[nH]c1=O [Example 124] | 6.76
22 | CC[C@H](CNC(=O)c1nn(C)c(=O)[nH]1)Cc1c(F)cc(F)cc1F [Example 125] | 6.55
23 | Cn1oc(C(=O)NCC2(Cc3ccc(F)cc3F)CCC2)cc1=O [Example 126] | <4.57
24 | O=C(NCC1(Cc2ccc(F)cc2F)CCC1)c1cn[nH]c(=O)c1 [Example 127] | <4.57
25 | O=C(NCC1(Cc2ccc(F)cc2F)CCC1)c1cc(O)ccn1 [Example 128] | 6.01
26 | CCC(F)(CNC(=O)c1nn(C)c(=O)[nH]1)Cc1ccc(F)cc1F (stereo not shown) [Example 129, N-(2-(2,4-difluorobenzyl)-2-fluorobutyl)-1-methyl-5-oxo-4,5-dihydro-1H-1,2,4-triazole-3-carboxamide] | 6.45
27 | O=C(NCC1(Cc2ccc(F)cc2F)CCC1)c1ccn[nH]c1=O [Example 134, N-((1-(2,4-difluorobenzyl)cyclobutyl)methyl)-3-oxo-2,3-dihydropyridazine-4-carboxamide] | <4.57
28 | CC[C@@H](Cc1ccccc1)C(C)NC(=O)c1nn(C)c(=O)[nH]1 (stereo partly shown) [Example 135] | 6.52
29 | O=C(NC[C@H](Cc1ccc(F)cc1F)C1CC1)c1cc(=O)[nH]o1 [Example 136] | 6.39
30 | O=C(NC[C@H](Cc1ccc(F)cc1F)C1CC1)c1coc(=O)[nH]1 [Example 137] | 5.58
31 | O=C(NCC1(Cc2ccc(F)cc2F)CCC1)c1c[nH]c(=O)cn1 [Example 138, N-((1-(2,4-difluorobenzyl)cyclobutyl)methyl)-5-oxo-4,5-dihydropyrazine-2-carboxamide] | <4.57
32 | O=C(NCC1(Cc2ccc(F)c(F)c2)CCC1)c1cncc(=O)[nH]1 [Example 139] | 5.73
33 | O=C(NCC1(Cc2ccc(F)cc2F)CCC1)c1nnn[nH]1 [Example 140] | <4.57
34 | CC[C@@H](Cc1ccc(F)cc1F)C(C)NC(=O)c1nn(C)c(=O)[nH]1 (stereo partly drawn) [Example 141, N-[(3S)-3-[(2,4-difluorophenyl)methyl]pentan-2-yl]-1-methyl-5-oxo-4H-1,2,4-triazole-3-carboxamide] | 6.44
35 | O=C(NC[C@H](Cc1ccc(F)c(F)c1)C1CC1)c1cncc(=O)[nH]1 [Example 143] | 6.47
36 | CCC(CNC(=O)c1nn(C)c(=O)[nH]1)Cc1ccc2cnccc2c1 (stereo not shown) [Example 144] | <4.57
37 | O=C(NCC1(Cc2ccc(F)cc2F)CCC1)c1cnc(=O)[nH]c1 [Example 145] | <4.57
